Experiment [1] addresses T1, Extracellular serine/threonine protein kinase FAM20C (Homo sapiens) (UniProt Q8IXL6).
T1 sequence (whole entry): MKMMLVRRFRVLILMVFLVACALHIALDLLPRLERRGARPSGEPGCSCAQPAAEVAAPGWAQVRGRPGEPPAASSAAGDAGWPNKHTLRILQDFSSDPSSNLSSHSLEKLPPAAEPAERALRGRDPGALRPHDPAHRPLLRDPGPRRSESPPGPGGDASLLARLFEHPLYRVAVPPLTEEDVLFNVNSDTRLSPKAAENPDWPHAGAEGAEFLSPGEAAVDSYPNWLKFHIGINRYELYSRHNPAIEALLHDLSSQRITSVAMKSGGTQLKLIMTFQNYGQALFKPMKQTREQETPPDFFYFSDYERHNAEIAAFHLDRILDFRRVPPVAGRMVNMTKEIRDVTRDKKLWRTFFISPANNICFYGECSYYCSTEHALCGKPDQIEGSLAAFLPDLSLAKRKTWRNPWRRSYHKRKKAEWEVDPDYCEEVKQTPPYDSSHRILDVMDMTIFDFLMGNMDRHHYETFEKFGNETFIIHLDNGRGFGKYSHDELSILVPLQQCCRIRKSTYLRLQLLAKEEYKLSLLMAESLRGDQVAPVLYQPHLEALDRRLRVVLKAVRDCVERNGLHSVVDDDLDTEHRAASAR
Nature of the experiment: Inhibition of Fam20C (unknown origin) assessed as reduction in inorganic phosphate release in presence of ATP at 10 uM measured by Malachite green phosphate staining based micro plate reader assay relative to control.

The subject of a further experiment is MCF7. Kind of experiment: Antiproliferative activity against human MCF7 cells measured by MTT assay. It is filed as functional, cell-based. (Tetrazolium assays rely on reduction of a dye to a coloured formazan, in cell work by metabolically active cells.)
The test system of a further experiment is MDA-MB-468. Nature of the experiment: Antiproliferative activity against human MDA-MB-468 cells measured by MTT assay. It counts as functional, cell-based.
Another experiment has as its system MDA-MB-231. Nature of the experiment: Antiproliferative activity against human MDA-MB-231 cells measured by MTT assay. It counts as functional, cell-based.

The structures appear in SMILES notation.

For the molecule `COc1cc(C)cc(Cl)c1S(=O)(=O)Nc1ccc(Nc2nc(C)cc(Nc3ccc(F)cc3)n2)cc1`, the inhibition in experiment [1] came to 12%. In addition, the IC50 in the experiment on MCF7, with MDA-MB-468 and in the experiment with MDA-MB-231 was more than 50 µM throughout.
`Cc1cc(Nc2ccc(F)cc2)nc(Nc2ccc(NS(=O)(=O)c3ccc(C(F)(F)F)cc3)cc2)n1`: the inhibition in experiment [1] was found to be 24%. For the same molecule, the IC50 with MCF7 was 18 µM; in the experiment with MDA-MB-468 it was 32.3 µM; with MDA-MB-231, 17.5 µM.
The like results for `COc1ccc(Nc2cc(C(F)(F)F)nc(Nc3ccc(NS(=O)(=O)c4ccc(C(F)(F)F)cc4)cc3)n2)cc1` were, in that order, 19%, 17.3 µM, 25.3 µM and 23.3 µM.
Consider `Cc1cc(Nc2ccc(F)cc2)nc(Nc2ccc(NS(=O)(=O)c3ccccc3OC(F)(F)F)cc2)n1`, for which, in experiment [1], the inhibition came out at 23%. The IC50 with MCF7 was more than 50 µM; with MDA-MB-468, 42.2 µM; with MDA-MB-231, 23.8 µM.
On to `COc1ccc(Nc2cc(C(F)(F)F)nc(Nc3ccc(NS(=O)(=O)c4c(Cl)cc(C)cc4OC)cc3)n2)cc1`, for which the inhibition in experiment [1] is 11%. Further, the IC50 in the experiment with MCF7, in the experiment with MDA-MB-468 and in the experiment on MDA-MB-231 was more than 50 µM in each case.
For the molecule `COc1cc(Nc2ccnc(Nc3ccc(NS(=O)(=O)c4ccc(C)cc4)cc3)n2)cc(OC)c1OC`, the inhibition in experiment [1] is 28%. Moreover, the IC50 in the experiment on MCF7 was more than 50 µM; in the experiment with MDA-MB-468, 46.8 µM; in the experiment on MDA-MB-231 it was 17.3 µM.
As to `COc1ccc(S(=O)(=O)Nc2ccc(Nc3nccc(-c4ccccc4)n3)cc2)cc1`, the inhibition in experiment [1] worked out at 10%. Besides, the concentration for half-maximal inhibition (IC50) in the experiment with MCF7, in the experiment on MDA-MB-468 and in the experiment with MDA-MB-231 was more than 50 µM throughout.
Take `COc1ccc(C(=O)Nc2ccc(Nc3nccc(Nc4ccc(OC)cc4C)n3)cc2)cc1`: in experiment [1], the inhibition came out at 23%. Also, the IC50 is more than 50 µM with MCF7, more than 50 µM in the experiment with MDA-MB-468 and 23.3 µM in the experiment with MDA-MB-231.
On to `COc1ccc(Nc2cc(C)nc(Nc3ccc(NS(=O)(=O)c4c(Cl)cc(C)cc4OC)cc3)n2)cc1`, for which the inhibition in experiment [1] stood at 12%. Besides, the 50% inhibitory concentration (IC50) with MCF7, in the experiment on MDA-MB-468 and in the experiment on MDA-MB-231 was more than 50 µM in each case.
For the molecule `COc1ccc(Nc2ccnc(Nc3ccc(NS(=O)(=O)c4ccc(C(F)(F)F)cc4)cc3)n2)cc1`, the inhibition in experiment [1] is 18%. The IC50 with MCF7 is 34.8 µM; in the experiment with MDA-MB-468, more than 50 µM; in the experiment on MDA-MB-231, 27.2 µM.
Turning to `COc1ccc(S(=O)(=O)Nc2ccc(Nc3nc(C)cc(Nc4ccc(OC)c(O)c4)n3)cc2)cc1`, the inhibition in experiment [1] stood at 11%. For the same molecule, the IC50 with MCF7, in the experiment with MDA-MB-468 and with MDA-MB-231 was more than 50 µM throughout.
As to `O=S(=O)(Nc1ccc(Nc2nc(Nc3ccc(F)cc3)cc(C(F)(F)F)n2)cc1)c1ccc(C(F)(F)F)cc1`, in experiment [1], the inhibition was found to be 15%. Moreover, the half-maximal inhibitory concentration (IC50) is 17.2 µM in the experiment on MCF7, more than 50 µM in the experiment on MDA-MB-468 and more than 50 µM in the experiment with MDA-MB-231.
Consider `Cc1ccc(S(=O)(=O)Nc2ccc(Nc3nc(Nc4ccc(F)cc4)cc(C(F)(F)F)n3)cc2)c(Cl)c1`, for which the inhibition in experiment [1] is 18%. In addition, the results for the half-inhibitory concentration (IC50) in the experiment on MCF7, with MDA-MB-468 and with MDA-MB-231 were more than 50 µM, more than 50 µM and 27.8 µM, respectively.
For the molecule `COc1ccc(Nc2cc(C(F)(F)F)nc(Nc3ccc(NS(=O)(=O)c4ccccc4Cl)cc3)n2)cc1`, the inhibition in experiment [1] stood at 21%. Also, the IC50 in the experiment with MCF7 was more than 50 µM; in the experiment on MDA-MB-468, more than 50 µM; with MDA-MB-231, 43.6 µM.
Turning to `COc1ccc(Nc2cc(C(F)(F)F)nc(Nc3ccc(NS(=O)(=O)c4ccc(OC)cc4)cc3)n2)cc1`, the inhibition in experiment [1] came to 43%. Also, the IC50 was more than 50 µM with MCF7, more than 50 µM in the experiment on MDA-MB-468 and 21.2 µM in the experiment on MDA-MB-231.
For the molecule `O=S(=O)(Nc1ccc(Nc2nc(Nc3ccc(F)cc3)cc(C(F)(F)F)n2)cc1)c1ccccc1OC(F)(F)F`, the inhibition in experiment [1] is 24%. Besides, the IC50 in the experiment with MCF7 is 16.7 µM; in the experiment with MDA-MB-468 it was more than 50 µM; with MDA-MB-231 it was 20.8 µM.
As for `COc1ccc(C(=O)Nc2ccc(Nc3nc(C)cc(Nc4cc(OC)c(OC)c(OC)c4)n3)cc2)cc1`, in experiment [1], the inhibition is 49%. Besides, the concentration for half-maximal inhibition (IC50) in the experiment with MCF7 is more than 50 µM; with MDA-MB-468 it was 3.62 µM; with MDA-MB-231, 7.2 µM.
For the molecule `COc1ccc(Nc2ccc(Nc3nc(C)cc(Nc4ccc(OC)cc4)n3)cc2)cc1`, the inhibition in experiment [1] is 14%. The 50% inhibitory concentration (IC50) with MCF7, in the experiment on MDA-MB-468 and with MDA-MB-231 was more than 50 µM each time.
For the molecule `COc1ccc(Nc2cc(C)nc(Nc3ccc(NS(=O)(=O)c4ccccc4Cl)cc3)n2)cc1`, the inhibition in experiment [1] is 40%. In addition, the IC50 is more than 50 µM in the experiment on MCF7, more than 50 µM in the experiment with MDA-MB-468 and 15.3 µM in the experiment with MDA-MB-231.
As for `COc1ccc(Nc2ccnc(Nc3ccc(NS(=O)(=O)c4ccc(C)cc4)cc3)n2)cc1`, the inhibition in experiment [1] turned out to be 28%. Further, the concentration for half-maximal inhibition (IC50) in the experiment on MCF7 was more than 50 µM; with MDA-MB-468, more than 50 µM; in the experiment with MDA-MB-231 it was 21.2 µM.
As to `COc1ccc(Nc2cc(C(F)(F)F)nc(Nc3ccc(NS(=O)(=O)c4ccccc4OC(F)(F)F)cc3)n2)cc1`, in experiment [1], the inhibition came to 18%. The results for the IC50 with MCF7, with MDA-MB-468 and in the experiment with MDA-MB-231 were 14 µM, more than 50 µM and 32.9 µM, respectively.
With `COc1ccc(Nc2ccnc(Nc3ccc(NS(=O)(=O)c4ccc(OC)cc4)cc3)n2)cc1`, the inhibition in experiment [1] worked out at 25%. For the same molecule, the concentration for half-maximal inhibition (IC50) was found to be 29 µM in the experiment with MCF7, 14.8 µM in the experiment on MDA-MB-468 and 6.87 µM in the experiment with MDA-MB-231.

The inhibition is the change of the read-out against control, counted positive when it falls. In general, IC50 refers to the midpoint of a concentration-inhibition curve. Low readings indicate higher potency, high ones lower potency.

The values above are taken from ChEMBL document CHEMBL4813922, “Discovery of a novel small-molecule inhibitor of Fam20C that induces apoptosis and inhibits migration in triple negative breast cancer” (Eur J Med Chem, 2021).
